Measured values published in patent US7799809B2, “Carboxamide compounds and their use as calpain inhibitors” (Abbott GmbH & Co. KG, priority 2006, dated 2010).

What was measured:
Type in all cases: biochemical
[1] = target: T1, cathepsin B (Homo sapiens, UniProt P07858); test: Cathepsin B enzyme inhibition in vitro (kinetic fluorescence assay); conditions: cathepsin B isolated from human liver vs calpain I
T1 construct: cathepsin B—isolated from human liver (Calbiochem #219362); purchased Calbiochem 219362; host or cells: human liver (tissue-derived)
Experimental: (§1) The following solutions and buffers were employed: • HBS (for 40 ml): 800 μl M HEPES; 2.16 ml 100 mM KCl; 4.8 ml 1M NaCl; 3.59 ml 5% glucose; 60 μl μM MgSO4; 400 μl 100 mM Na pyruvate, 28.19 ml water; pH 7.2-7.5. • lysis buffer (for 20 ml): 400 μl M Tris pH 8.2; 2.74 ml 1M NaCl; 520 μl 0.5M EDTA; 2 ml 10% triton X-100; 0.8 ml (=1:25) CompletePlus (1 tablet/2 ml H2O); 200 μl 100 mM Pefabloc; 13.34 ml water, pH 8.2. • TBST (10×) (for 1 l): 100 mM Tris (12.1 g); 1.5M NaCl (87 g); 1% Tween 20 (10 g), adjusted to pH 8. I Enzyme Inhibition In Vitro: • Testing for blockade of the corresponding enzymic activities was carried out by means of kinetic fluorescence assays (excitation 390 nm, emission 460 nm). • Apparent Ki values were calculated from the experimentally determined IC50 values by the Cheng-Prussoff relation assuming a reversible competitive enzyme inhibition. The Km values of the substrates used under the assay conditions indicated above were: 90 μM (Z-Phe-Arg-AMC, cathepsin B), 10 μM (Z-Gly-Pro-Arg-AMC, cathepsin K), 2 μM (Z-Phe-Arg-AMC, cathepsin L), and 30 μM (Z-Val-Val-Arg-AMC, cathepsin S). • The indicated Ki values are averages of the inhibition constants calculated on the basis of 2 to 4 independent dose-effect plots.
(§2) The following assays were used: • 1. Calpain I: • 20 nM calpain-I—isolated from human erythrocytes (Calbiochem #208713), 100 μM Suc-Leu-Tyr-AMC (Bachem #1-1355) as substrate in buffer with 62 mM imidazole, 0.3 mM CaCl2, 0.10% CHAPS, 0.05% BSA, 1 mM DTT at pH 7.3 and room temperature. • 2. Cathepsin B: • 0.25 nM cathepsin B—isolated from human liver (Calbiochem #219362), 100 μM Z-Phe-Arg-AMC (Bachem #I-1160) as substrate 50 mM MES, 2 mM EDTA, 0.05% Brij 35, 2.5 mM L-cysteine, pH 6.0, room temperature. • 3. Cathepsin K: • 3 nM cathepsin K—activated from recombinant human procathepsin K from E. coli (Calbiochem #342001), 10 μM Z-Gly-Pro-Arg-AMC (Biomol #P-142) as substrate in 50 mM MES, 2 mM EDTA, 0.05% Brij 35, 2.5 mM L-cysteine, pH 6.0, room temperature. • 4. Cathepsin L: • 1 nM cathepsin L—isolated from human liver (Calbiochem #219402), 2 μM Z-Phe-Arg-AMC (Bachem #1-1160) as substrate in 50 mM MES, 2 mM EDTA, 0.05% Brij 35, 2.5 mM L-cysteine, pH 6.0, room temperature. • 5. Cathepsin S: • 0.5 nM recombinant human cathepsin S from E. coli (Calbiochem #219343), 20 μM Z-Val-Val-Arg-AMC (Bachem #1-1540) as substrate in 50 mM MES, 2 mM EDTA, 0.05% Brij 35, 2.5 mM L-cysteine, pH 6.0, room temperature. • The results of the in vitro determination are indicated in Table 1. The following abbreviations are used in Table 1: • The “Calpain activity” column, ++ stands for a calpain Ki (Ki(calpain)) of ≦40 nM and + means: 40 nM<Ki(Calpain)≦100 nM. • The “Sel. cat. B” column indicates the Ki(cathepsin B)/Ki(calpain) ratio. In this connection, ++ means a Ki(cathepsin B)/Ki(calpain) ratio of ≧30 and + means 10≦Ki(cathepsin B)/Ki(calpain)<30. • The “Sel. cat. K” column indicates the Ki(cathepsin K)/Ki(calpain) ratio. In this connection, ++ means a Ki(cathepsin K)/Ki(calpain) ratio of ≧30 and + means 10≦Ki(cathepsin K)/Ki(calpain)<30. • The “Sel. cat. L” column indicates the Ki(cathepsin L)/Ki(calpain) ratio. In this connection, ++ means a Ki(cathepsin L)/Ki(calpain) ratio of ≧50 and + means 30≦Ki(cathepsin L)/Ki(calpain)<50. • The “Sel. cat. S” column indicates the Ki(cathepsin S)/Ki(calpain) ratio. In this connection, ++ means a Ki(cathepsin S)/Ki(calpain) ratio of ≧100 and + means 50≦Ki(cathepsin S)/Ki(calpain)<100.

[2] = target: T2, cathepsin S (Homo sapiens, UniProt P25774); test: Cathepsin S enzyme inhibition in vitro (kinetic fluorescence assay); conditions: recombinant human cathepsin S vs calpain I
T2 construct: purchased Calbiochem 219343; host or cells: E. coli
T2 sequence (P25774 115-331): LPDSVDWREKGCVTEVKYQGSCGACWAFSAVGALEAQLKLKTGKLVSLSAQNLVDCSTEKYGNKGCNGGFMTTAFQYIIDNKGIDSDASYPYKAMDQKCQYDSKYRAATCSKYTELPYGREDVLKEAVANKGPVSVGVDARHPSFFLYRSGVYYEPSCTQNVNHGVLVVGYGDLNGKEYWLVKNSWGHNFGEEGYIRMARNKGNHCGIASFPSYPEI
Experimental: as §1, §2

[3] = target: T3, cathepsin L (Homo sapiens, UniProt P07711); test: Cathepsin L enzyme inhibition in vitro (kinetic fluorescence assay); conditions: cathepsin L isolated from human liver vs calpain I
T3 construct: cathepsin L—isolated from human liver (Calbiochem #219402); purchased Calbiochem 219402; host or cells: human liver (tissue-derived)
T3 sequence (P07711 114-333): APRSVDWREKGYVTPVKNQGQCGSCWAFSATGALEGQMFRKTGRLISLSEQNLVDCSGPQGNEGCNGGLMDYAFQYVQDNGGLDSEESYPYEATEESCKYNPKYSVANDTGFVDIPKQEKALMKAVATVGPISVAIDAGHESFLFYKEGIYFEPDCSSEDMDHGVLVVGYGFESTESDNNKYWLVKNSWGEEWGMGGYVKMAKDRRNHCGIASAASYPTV
Experimental: as §1, §2

Compound	Sel cat. B: Ki(cathepsin B)/Ki(calpain) ratio [1]	Sel cat. S: Ki(cathepsin S)/Ki(calpain) ratio [2]	Sel cat. L: Ki(cathepsin L)/Ki(calpain) ratio [3]
CCCCC(NC(=O)c1cc(Cl)cnc1-n1ccc(-c2ccccc2)n1)C(=O)C(N)=O (centres unmarked) [Example 28, N-{1-[Amino(oxo)acetyl]pentyl}-5-chloro-2-(3-phenyl-1H-pyrazol-1-yl)nicotinamide]	+ (+ means 10≦Ki(cathepsin B)/Ki(calpain)<30)	–	–
CC(C)CC(NC(=O)c1cc(Cl)cnc1-n1ccc(-c2ccccc2)n1)C(=O)C(N)=O (centres unmarked) [Example 32, N-{1-[Amino(oxo)acetyl]-3-methylbutyl}-5-chloro-2-(3-phenyl-1H-pyrazol-1-yl)nicotinamide]	+ (+ means 10≦Ki(cathepsin B)/Ki(calpain)<30)	–	–
CCCCC(NC(=O)c1cccnc1-n1ccc(-c2ccc(N3CCOCC3)cc2)n1)C(=O)C(N)=O (centres unmarked) [Example 33, N-{1-[Amino(oxo)acetyl]pentyl}-2-[3-(4-morpholin-4-ylphenyl)-1H-pyrazol-1-yl]nicotinamide]	+ (+ means 10≦Ki(cathepsin B)/Ki(calpain)<30)	+ (+ means 50≦Ki(cathepsin S)/Ki(calpain)<100)	–
NC(=O)C(=O)C(Cc1cccs1)NC(=O)c1cccnc1-n1ccc(-c2ccccc2)n1 (centres unmarked) [Example 40, N-[3-Amino-2,3-dioxo-1-(2-thienylmethyl)propyl]-2-(3-phenyl-1H-pyrazol-1-yl)pyridine-3-carboxamide]	+ (+ means 10≦Ki(cathepsin B)/Ki(calpain)<30)	++ (++ means a Ki(cathepsin S)/Ki(calpain) ratio of ≧100)	++ (++ means a Ki(cathepsin L)/Ki(calpain) ratio of ≧50)
Cc1cc(-c2ccccc2)nn1-c1ncccc1C(=O)NC(Cc1ccccc1)C(=O)C(N)=O (centres unmarked) [Example 61, N-(3-Amino-1-benzyl-2,3-dioxopropyl)-2-(5-methyl-3-phenyl-1H-pyrazol-1-yl)nicotinamide]	+ (+ means 10≦Ki(cathepsin B)/Ki(calpain)<30)	++ (++ means a Ki(cathepsin S)/Ki(calpain) ratio of ≧100)	–
N#Cc1ccc(-c2ccn(-c3ncccc3C(=O)NC(Cc3ccccc3)C(=O)C(N)=O)n2)cc1 (centres unmarked) [Example 62, N-(3-Amino-1-benzyl-2,3-dioxopropyl)-2-[3-(4-cyanophenyl)-1H-pyrazol-1-yl]nicotinamide]	–	++ (++ means a Ki(cathepsin S)/Ki(calpain) ratio of ≧100)	++ (++ means a Ki(cathepsin L)/Ki(calpain) ratio of ≧50)
NC(=O)C(=O)C(Cc1ccccc1)NC(=O)c1cccnc1-n1ccc(-c2ccc(N3CCCCC3)cc2)n1 (centres unmarked) [Example 64, N-(3-Amino-1-benzyl-2,3-dioxopropyl)-2-[3-(4-piperidin-1-ylphenyl)-1H-pyrazol-1-yl]nicotinamide]	+ (+ means 10≦Ki(cathepsin B)/Ki(calpain)<30)	++ (++ means a Ki(cathepsin S)/Ki(calpain) ratio of ≧100)	–
NC(=O)C(=O)C(Cc1ccccc1)NC(=O)c1cccnc1-n1cc2ccccc2n1 (centres unmarked) [Example 78, N-(3-Amino-1-benzyl-2,3-dioxopropyl)-2-(2H-indazol-2-yl)nicotinamide]	–	+ (+ means 50≦Ki(cathepsin S)/Ki(calpain)<100)	++ (++ means a Ki(cathepsin L)/Ki(calpain) ratio of ≧50)
Cc1cn(-c2ncccc2C(=O)NC(Cc2ccccc2)C(=O)C(N)=O)nc1-c1ccccc1 (centres unmarked) [Example 84, N-(3-Amino-1-benzyl-2,3-dioxopropyl)-2-(4-methyl-3-phenyl-1H-pyrazol-1-yl)nicotinamide]	+ (+ means 10≦Ki(cathepsin B)/Ki(calpain)<30)	++ (++ means a Ki(cathepsin S)/Ki(calpain) ratio of ≧100)	++ (++ means a Ki(cathepsin L)/Ki(calpain) ratio of ≧50)
NC(=O)C(=O)C(Cc1ccccc1)NC(=O)c1ccccc1-n1ccc(-c2ccccc2)n1 (centres unmarked) [Example 106, N-[3-Amino-2,3-dioxo-1-(phenylmethyl)propyl]-2-(3-phenyl-1H-pyrazol-1-yl)benzamide]	–	++ (++ means a Ki(cathepsin S)/Ki(calpain) ratio of ≧100)	+ (+ means 30≦Ki(cathepsin L)/Ki(calpain)<50)
NC(=O)C(=O)C(Cc1ccc(Br)cc1)NC(=O)c1cccnc1-n1ccc(-c2ccccc2)n1 (centres unmarked) [Example 122, N-{3-Amino-1-[(4-bromophenyl)methyl]-2,3-dioxopropyl}-2-(3-phenyl-1H-pyrazol-1-yl)pyridine-3-carboxamide]	++ (++ means a Ki(cathepsin B)/Ki(calpain) ratio of ≧30)	++ (++ means a Ki(cathepsin S)/Ki(calpain) ratio of ≧100)	++ (++ means a Ki(cathepsin L)/Ki(calpain) ratio of ≧50)
NC(=O)C(=O)C(Cc1ccccc1)NC(=O)c1cccnc1-n1cc2c(n1)-c1ccccc1OCC2 (centres unmarked) [Example 141, N-[3-Amino-2,3-dioxo-1-(phenylmethyl)propyl]-2-(4,5-dihydro-2H-[1]benzoxepino[5,4-c]pyrazol-2-yl)pyridine-3-carboxamide]	–	++ (++ means a Ki(cathepsin S)/Ki(calpain) ratio of ≧100)	++ (++ means a Ki(cathepsin L)/Ki(calpain) ratio of ≧50)
CC(C)c1ccc2c(c1)-c1nn(-c3ncccc3C(=O)NC(Cc3ccccc3)C(=O)C(N)=O)cc1CO2 (centres unmarked) [Example 144, N-[3-Amino-2,3-dioxo-1-(phenylmethyl)propyl]-2-[8-(1-methylethyl)chromeno[4,3-c]pyrazol-2(4H)-yl]pyridine-3-carboxamide]	+ (+ means 10≦Ki(cathepsin B)/Ki(calpain)<30)	++ (++ means a Ki(cathepsin S)/Ki(calpain) ratio of ≧100)	++ (++ means a Ki(cathepsin L)/Ki(calpain) ratio of ≧50)
NC(=O)C(=O)C(Cc1ccccc1)NC(=O)c1cccnc1-n1cc(COc2ccccc2)c(-c2ccc(F)cc2)n1 (centres unmarked) [Example 179, N-[3-Amino-2,3-dioxo-1-(phenylmethyl)propyl]-2-{3-(4-fluorophenyl)-4-[(phenyloxy)methyl]-1H-pyrazol-1-yl}pyridine-3-carboxamide]	–	++ (++ means a Ki(cathepsin S)/Ki(calpain) ratio of ≧100)	+ (+ means 30≦Ki(cathepsin L)/Ki(calpain)<50)
CS(=O)(=O)NCc1cn(-c2ncccc2C(=O)NC(Cc2ccccc2)C(=O)C(N)=O)nc1-c1ccc(F)cc1 (centres unmarked) [Example 187, N-[3-Amino-2,3-dioxo-1-(phenylmethyl)propyl]-2-[3-(4-fluorophenyl)-4-{[(methylsulfonyl)amino]methyl}-1H-pyrazol-1-yl]pyridine-3-carboxamide]	–	++ (++ means a Ki(cathepsin S)/Ki(calpain) ratio of ≧100)	+ (+ means 30≦Ki(cathepsin L)/Ki(calpain)<50)
